Our source for the Ki and Km values is ChEMBL document CHEMBL2073955, “Proton/peptide cotransporter (PEPT 2) from human kidney: functional characterization and chromosomal localization” (Biochim Biophys Acta, 1995).

Where a SMILES comes first, the peptide text is derived from it.

Usually Ki stands for the dissociation constant of the complex between target and ligand, obtained from inhibition or displacement. A low value points to a stronger hold on the target. For orientation: Km means the concentration of substrate that gives half-maximal velocity.

Type in all cases: functional, cell-based
The target in data set [1] is T1, Solute carrier family 15 member 2 (Homo sapiens, UniProt Q16348).
T1 sequence (Q16348 whole entry): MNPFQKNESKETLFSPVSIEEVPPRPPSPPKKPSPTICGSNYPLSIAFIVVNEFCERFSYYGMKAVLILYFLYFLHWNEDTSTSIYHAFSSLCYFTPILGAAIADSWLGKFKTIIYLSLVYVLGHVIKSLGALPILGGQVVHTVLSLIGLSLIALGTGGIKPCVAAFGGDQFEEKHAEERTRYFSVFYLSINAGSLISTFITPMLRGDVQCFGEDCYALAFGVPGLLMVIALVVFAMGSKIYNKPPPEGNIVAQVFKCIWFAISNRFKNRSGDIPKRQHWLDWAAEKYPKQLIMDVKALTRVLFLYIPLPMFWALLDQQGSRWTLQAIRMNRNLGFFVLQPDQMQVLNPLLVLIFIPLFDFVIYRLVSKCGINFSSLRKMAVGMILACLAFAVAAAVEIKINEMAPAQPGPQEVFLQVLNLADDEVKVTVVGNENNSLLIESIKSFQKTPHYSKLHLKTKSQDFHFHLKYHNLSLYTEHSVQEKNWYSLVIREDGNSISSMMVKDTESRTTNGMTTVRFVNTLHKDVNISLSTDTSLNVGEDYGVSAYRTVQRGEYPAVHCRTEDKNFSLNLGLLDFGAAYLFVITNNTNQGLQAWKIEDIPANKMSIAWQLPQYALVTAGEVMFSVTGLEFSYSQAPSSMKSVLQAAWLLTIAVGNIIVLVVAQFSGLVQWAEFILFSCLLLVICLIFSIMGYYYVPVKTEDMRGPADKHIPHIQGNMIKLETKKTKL
The data set can be described thus: TP_TRANSPORTER: inhibition of Gly-Sar uptake in PEPT2-expressing HeLa cells.

The target in data set [2] is T2, Solute carrier family 15 member 1 (Homo sapiens, UniProt P46059).
T2 sequence (P46059 whole entry): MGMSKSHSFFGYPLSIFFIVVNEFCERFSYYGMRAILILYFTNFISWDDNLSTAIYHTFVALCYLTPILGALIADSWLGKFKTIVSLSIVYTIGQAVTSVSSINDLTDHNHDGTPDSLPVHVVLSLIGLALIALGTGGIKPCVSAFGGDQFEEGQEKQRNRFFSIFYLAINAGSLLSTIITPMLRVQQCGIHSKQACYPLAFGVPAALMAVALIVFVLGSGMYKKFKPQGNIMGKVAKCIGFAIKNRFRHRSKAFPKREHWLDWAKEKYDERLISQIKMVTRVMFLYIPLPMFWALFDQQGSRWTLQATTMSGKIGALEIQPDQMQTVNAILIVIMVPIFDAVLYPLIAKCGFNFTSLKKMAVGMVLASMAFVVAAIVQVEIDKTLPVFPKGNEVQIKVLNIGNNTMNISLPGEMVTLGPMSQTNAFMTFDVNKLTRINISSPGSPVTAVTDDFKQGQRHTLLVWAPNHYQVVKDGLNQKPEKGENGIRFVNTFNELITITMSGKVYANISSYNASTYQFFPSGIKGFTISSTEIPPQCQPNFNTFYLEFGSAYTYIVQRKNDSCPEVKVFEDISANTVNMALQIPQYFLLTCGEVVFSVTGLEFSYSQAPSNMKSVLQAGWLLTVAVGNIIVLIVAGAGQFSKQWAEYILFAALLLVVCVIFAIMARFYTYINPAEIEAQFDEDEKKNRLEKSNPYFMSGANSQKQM
The experiment in a line: TP_TRANSPORTER: inhibition of Gly-Sar uptake in PEPT1-expressing HeLa cells.

Substrate in data set [3]: CN(CC(=O)O)C(=O)CN
The data set can be described thus: TP_TRANSPORTER: uptake in PEPT2-expressing HeLa cells.

For the molecule `C[C@H](N)C(=O)N[C@@H](CCCCN)C(=O)O` (H-Ala-Lys-OH), the values for the Ki in data set [1] and in data set [2] were 11 µM and 117 µM, respectively.
In the same order, the values of `C[C@H](N)C(=O)N[C@@H](CC(=O)O)C(=O)O` (H-Ala-Asp-OH) are 18 µM and 78 µM.
In the same order, the values of `C[C@H](NC(=O)[C@@H](N)CCCCN)C(=O)O` (H-Lys-Ala-OH) are 23 µM and 419 µM.
For `C[C@H](N)C(=O)N[C@@H](C)C(=O)O` (H-Ala-Ala-OH), in that order: 6 µM and 78 µM.
In the case of `NCCCC[C@H](NC(=O)[C@@H](N)CC(=O)O)C(=O)O` (H-Asp-Lys-OH), the Ki amounted to 8 µM in data set [1] and 108 µM in data set [2].

B1: Solute carrier family 15 member 2 (Homo sapiens), Q16348 (protein)
chain: T1 sequence (Q16348 whole entry)
Take B1: the Km in data set [3] was 74 µM.
